Paper PMC5601486, “Identification of 4-phenylquinolin-2(1H)-one as a specific allosteric inhibitor of Akt” (Scientific Reports, 2017)
Like-named read-outs stand apart in the source and are kept apart here.

What was measured:
[1] = system: HIPK2; test: KINOMEscan; details: 50000 nM
Description: KINOMEscan™ selectivity screen
(§2) The assay was perfor med at DiscoveRx Corporation according the methods published previously5. Briefly, Kinase-tagged T7 phage strains were grown in parallel in an E. coli host derived from the BL21 strain. E. coli were grown to log-phase and infected with T7 phage from a frozen stock and incubated with shaking at 32°C until lysis (90-150 minutes). The kinases were produced in HEK-293 cells and subsequently tagged with DNA for qPCR detection. Streptavidin-coated magnetic beads were treated with biotinylated small molecule ligands to generate affinity resins for kinase
(§3) inhibitor or DMSO control was performed in polypropylene 384-well plates for 1 hr at room temperature. After wash with PBS buffer containing 0.05% Tween 20, the beads were incubated in elution buffer (PBS containing 0.05 % Tween 20 and 0.5 μM non-biotinylated affinity ligand) for 30 minutes at room temperature. The kinase concentration in the eluates was measured by qPCR.

[2] = system: TRKC; test: KINOMEscan; details: 50000 nM
Description: KINOMEscan™ selectivity screen
(§4) Briefly, Kinase-tagged T7 phage strains were grown in parallel in an E. coli host derived from the BL21 strain. E. coli were grown to log-phase and infected with T7 phage from a frozen stock and incubated with shaking at 32°C until lysis (90-150 minutes). The kinases were produced in HEK-293 cells and subsequently tagged with DNA for qPCR detection. Streptavidin-coated magnetic beads were treated with biotinylated small molecule ligands to generate affinity resins for kinase
as §3

[3] = system: CDK5; test: KINOMEscan; details: 50000 nM
Description: KINOMEscan™ selectivity screen
as §2, §3

[4] = system: PRKD1; test: KINOMEscan; details: 50000 nM
Description: KINOMEscan™ selectivity screen
as §2, §3

[5] = system: CDKL2; test: KINOMEscan; details: 50000 nM
Description: KINOMEscan™ selectivity screen
as §4, §3

[6] = molecular target: T1, full-length Akt (Homo sapiens, UniProt P31749); test: Microscale thermophoresis; assay type: binding
T1 construct: purchased Millipore
Description: (§1) Using 0.1 M Tris-HCl buffer (pH 7.2) containing 0.05% Tween-20, a 1:1 serial dilution was prepared for G7 to yield 16 working solutions, with the highest concentration being 200 µM. Each of these G7 solutions was mixed with 1 µM of purified Akt sample prepared in the same 0.05% Tween-20 Tris-HCl buffer. […] After 15-min incubation the samples were centrifuged at 14,000 g at 4 °C before loading into premium coated capillaries (NanoTemper Tech.) for MST measurements. The MST experiments was conducted on a Monolith NT.LabelFree instrument (NanoTemper Tech.), at 20% LED power and 40% MST power. Data analyses were performed using the NanoTemper analysis software.

[7] = molecular target: T2, Akt PH domain (Homo sapiens, UniProt P31749); test: Microscale thermophoresis; assay type: binding; details: recombinant Akt PH domain
T2 construct: The Akt samples tested include recombinant Akt PH domain; purchased Millipore
Description: as §1

[8] = system: IRAK3; test: KINOMEscan; details: 50000 nM
Description: KINOMEscan™ selectivity screen
as §4, §3

[9] = system: CAMKK2; test: KINOMEscan; details: 50000 nM
Description: KINOMEscan™ selectivity screen
as §2, §3

[10] = system: NIH/3T3 cells; test: MTS cell proliferation/viability assay; assay type: cell-based; details: no longer proliferating, in comparison to LY or Torin 1
Description: Neuro 2A cells or NIH/3T3 cells (ATCC) were seeded at various confluency in a 96-well plate in 100 µL DMEM containing 5% FBS or 10% FBS with 1% penicillin streptomucin, respectively, at 37 °C in a 5% CO2 and 95% humidity incubator for 18 hr. To each well 1 µL inhibitor with various concentrations or DMSO was added. The final concentrations of the tested inhibitors were 0, 5, 10, 20, 40 and 80 µM for G7 and LY, and 0, 5, 10, 20, 40 and 80 nM for Torin1, based on their respective IC50 values (~µM for G7 and LY and ~ nM for Torin 1). After 24 hr, 20 µL of CellTiter 96® AQueous One Solution Reagent (Promega) were added. The plate was placed in the incubator for 2 h and absorbance at 490 nm was measured with a Synergy HT Microplate Reader (Bio-Tek).

[11] = system: PAK4; test: KINOMEscan; details: 50000 nM
Description: as §4, §3

[12] = system: ABL2; test: KINOMEscan; details: 50000 nM
Description: KINOMEscan™ selectivity screen
as §2, §3

[13] = system: EGFR(L747-T751del,Sins); test: KINOMEscan; details: 50000 nM
Description: KINOMEscan™ selectivity screen
as §4, §3

[14] = system: NDR1; test: KINOMEscan; details: 50000 nM
Description: KINOMEscan™ selectivity screen
as §4, §3

[15] = system: GRK3; test: KINOMEscan; details: 50000 nM
Description: KINOMEscan™ selectivity screen
as §4, §3

[16] = system: CDK3; test: KINOMEscan; details: 50000 nM
Description: KINOMEscan™ selectivity screen
as §4, §3

[17] = system: DAPK3; test: KINOMEscan; details: 50000 nM
Description: KINOMEscan™ selectivity screen
as §4, §3

[18] = system: CAMKK1; test: KINOMEscan; details: 50000 nM
Description: KINOMEscan™ selectivity screen
as §2, §3

[19] = system: ERK1; test: KINOMEscan; details: 50000 nM
Description: KINOMEscan™ selectivity screen
as §2, §3

[20] = system: VEGFR2; test: KINOMEscan; details: 50000 nM
Description: KINOMEscan™ selectivity screen
as §2, §3

[21] = system: PRKG2; test: KINOMEscan; details: 50000 nM
Description: KINOMEscan™ selectivity screen
as §2, §3

[22] = system: AKT2; test: KINOMEscan; details: 50000 nM
Description: KINOMEscan™ selectivity screen
as §4, §3

[23] = system: DDR2; test: KINOMEscan; details: 50000 nM
Description: KINOMEscan™ selectivity screen
as §2, §3

[24] = system: MAP4K5; test: KINOMEscan; details: 50000 nM
Description: KINOMEscan™ selectivity screen
as §2, §3

[25] = system: FES; test: KINOMEscan; details: 50000 nM
Description: KINOMEscan™ selectivity screen
as §4, §3

[26] = system: SIK; test: KINOMEscan; details: 50000 nM
Description: KINOMEscan™ selectivity screen
as §2, §3

[27] = system: GSK3A; test: KINOMEscan; details: 50000 nM
Description: KINOMEscan™ selectivity screen
as §4, §3

[28] = system: MYLK4; test: KINOMEscan; details: 50000 nM
Description: KINOMEscan™ selectivity screen
as §2, §3

[29] = system: AURKA; test: KINOMEscan; details: 50000 nM
Description: KINOMEscan™ selectivity screen
as §2, §3

[30] = system: RSK3(Kin.Dom.2-C-terminal); test: KINOMEscan; details: 50000 nM
Description: KINOMEscan™ selectivity screen
as §2, §3

[31] = system: CSNK1A1; test: KINOMEscan; details: 50000 nM
Description: KINOMEscan™ selectivity screen
as §2, §3

[32] = system: ROS1; test: KINOMEscan; details: 50000 nM
Description: KINOMEscan™ selectivity screen
as §2, §3

T1 sequence (P31749 whole entry): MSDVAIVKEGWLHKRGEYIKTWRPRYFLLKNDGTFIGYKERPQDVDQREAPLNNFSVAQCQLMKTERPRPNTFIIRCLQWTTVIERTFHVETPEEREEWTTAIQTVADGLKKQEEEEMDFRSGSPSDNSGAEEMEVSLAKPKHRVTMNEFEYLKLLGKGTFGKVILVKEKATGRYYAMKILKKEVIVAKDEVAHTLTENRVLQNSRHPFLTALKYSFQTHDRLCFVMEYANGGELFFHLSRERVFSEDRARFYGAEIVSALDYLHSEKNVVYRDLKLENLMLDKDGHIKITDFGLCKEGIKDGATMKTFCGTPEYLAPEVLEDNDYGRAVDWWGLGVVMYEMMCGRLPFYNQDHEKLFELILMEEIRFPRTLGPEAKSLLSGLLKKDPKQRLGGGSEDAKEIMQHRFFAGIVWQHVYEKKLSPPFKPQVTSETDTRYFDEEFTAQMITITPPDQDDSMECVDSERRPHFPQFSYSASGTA
T2 sequence (P31749 5-108 limits assumed): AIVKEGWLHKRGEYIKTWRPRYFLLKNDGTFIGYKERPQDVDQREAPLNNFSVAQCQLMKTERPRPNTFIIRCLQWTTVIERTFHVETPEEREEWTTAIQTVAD

Oc1cc(-c2ccccc2)c2ccccc2n1 [G7, 4-phenylquinolin-2(1H)-one]
Percent Control [1]: 63%
Percent Control [2]: 61%
Percent Control [3]: 75%
Percent Control [4]: 96%
Percent Control [5]: 69%
Kd ([6]; active Akt, read-out: Kd): 6.3 ± 2.9 µM
Kd ([6]; full-length Akt regardless of the activation status, read-out: Kd values): 4 to 6 µM
Kd ([6]; inactive Akt, read-out: Kd): 3.7 ± 1 µM
Kd [7]: 8 µM
Percent Control [8]: 74%
Percent Control [9]: 90%
inhibition of confluent NIH/3T3 cells [10]: considerably less inhibition
Percent Control [11]: 84%
Percent Control [12]: 94%
Percent Control [13]: 77%
Percent Control [14]: 83%
Percent Control [15]: 100%
Percent Control [16]: 88%
Percent Control [17]: 74%
Percent Control [18]: 80%
Percent Control [19]: 89%
Percent Control [20]: 67%
Percent Control [21]: 100%
Percent Control [22]: 93%
Percent Control [23]: 87%
Percent Control [24]: 100%
Percent Control [25]: 92%
Percent Control [26]: 65%
Percent Control [27]: 22%
Percent Control [28]: 43%
Percent Control [29]: 50%
Percent Control [30]: 59%
Percent Control [31]: 80%
Percent Control [32]: 98%
